Data set [1] in a line: n-octanol/water distribution coefficient, shake-flask. It is filed as physicochemical. Conditions: n-octanol/buffered aqueous solution, pH 7.40, UV-vis. On the procedure:
The titrations were carried out under a nitrogen atmosphere.

The next data set relates to A2780 cells. Kind of data set: Cellular accumulation of Cu by ICP-MS. Conditions: 24 h exposure, 1 μM. It is filed as cell-based, human. The text has this: The ability of anticancer drugs to penetrate biological membranes, tissues, and barriers underlies their biological, pharmacokinetic, and metabolic properties. These properties can be predicted by calculating physicochemical characteristics of drug candidates using molecular descriptors.[30] […] The results are shown in Table S7 in the Supporting Information. On the basis of the calculated physicochemical parameters, we determined if novel compounds belonged to the drug-like chemical space, which is commonly defined by the well-known Lipinski rule, or to the known drug space (KDS), which includes all small compounds in medical use.[31] […] Following the calculations, we determined the lipophilicity of all compounds experimentally (log D7.4, Tables 1 and 2). It is known that cancer cells accumulate hydrophilic compounds to a smaller extent relative to hydrophobic compounds, thereby affecting their activity. […] As expected, proligands were more lipophilic than the corresponding Cu(II) species, which are positively charged at physiological pH (Figure 3b). […] The lipophilicity of 2–5 increased in the following order 4 < 2 < 3 < 5, and correlated well with their cytotoxicity in cancer cells, with the exception of 3. Subsequently, we determined the total cellular accumulation of Cu in A2780 cells by ICP–MS upon 24 h exposure to 1–6 in comparison with CuCl2 (Table 2). […] The accumulation increased in the order 6 < 1 < 3 < 4 < 2 < 5.
Cellular accumulation of 1–6 was determined in A2780 cells. Cells were seeded into Cellstar 6-well plates (Greiner Bio-one) at a density of 60 × 10^4 cells/well (2 mL per well). After the cells were allowed to resume exponential growth for 24 h, they were exposed to 1–6 at 1 μM for 24 h at 37 °C. The cells were washed twice with 1 mL of PBS and lysed with RIPA lysis buffer for 5–10 min at 4 °C. The cell lysates were scraped from the wells and transferred to separate 1.5 mL microtubes. The supernatant was then collected after centrifugation (13 000 rpm, 4 °C for 15 min) and total protein content of each sample was quantified via Bradford’s assay. Cell lysates were transferred to 2 mL glass vials and then digested with ultrapure 65% HNO3 at 100 °C for 24 h. The resulting solution was diluted to 1 mL (2–4% v/v HNO3) with ultrapure Milli-Q water. Cu content of each sample was quantified by ICP–MS. In was used as an internal standard. Cu and In were measured at m/z 64 and m/z 115, respectively. Metal standards for calibration curve (0, 0.5, 1, 2, 5, 10, 20, and 40 ppb) were freshly prepared before each measurement. All readings were made in triplicates in He mode. For temperature-dependent cellular accumulation experiments, A2780 cells were seeded into 35 n 10 mm tissue culture plates at a density of 60 0 10^4 cells/plate. After the cells were allowed to resume exponential growth for 24 h, they were exposed to 2 at 3 μM for 10, 30, 60, and 120 min at 37 and 4 °C. The subsequent analysis was performed as described above. For energy-dependent experiments, A2780 cells were seeded into 35 5 10 mm tissue culture plates at a density of 1 0 10^6 cells/plate. After the cells were allowed to resume exponential growth for 24 h, they were preincubated with oligomycin (5 μM) for 1 or 4 h or with cycloheximide (100 μM) for 4 h and further co-incubated with 3 μM of 2 at 37 °C. To induce total starvation, after the cells were allowed to resume exponential growth for 24 h, RPMI media was replaced with HBSS, and cells were preincubated in HBSS for 1 h and further incubated with 3 μM of 2 for 1 h at 37 °C. The subsequent analysis was performed as described above.

A short description of the next data set: Solubility in water. It is filed as physicochemical. Particulars: sterile water stock solutions. The method, then: Human ovarian carcinoma cells A2780 and A2780cisR and human embryonic kidney HEK293 were obtained from ATCC. A2780 and A2780cisR cells were cultured in RPMI 1640 medium containing 10% FBS. HEK293 were cultured in DMEM medium containing 10% FBS. All cells were grown in tissue culture 25 cm^2 flasks (BD Biosciences, Singapore) at 37 °C in a humidified atmosphere of 95% air and 5% CO2. All drug stock solutions were prepared in sterile water. The amount of Cu was determined by ICP–OES.

The nature of data set [2]: Cyclic voltammetry, redox potentials. It is filed as physicochemical. Particulars: first reduction step. On the procedure:
To assess the redox properties of 1-6, detailed electrochemical and spectroscopic studies in various solvents were performed using cyclic voltammetry as well as EPR-spectroelectrochemistry. Additionally, the UV-vis spectra of 1-5 were measured (Figure S8). […] The second reduction step occurred at -1.8 V versus Fc^+/Fc (-1.16 V vs NHE) and was less reversible, indicating a ligand-based reduction. […] In aqueous solutions, the reduction potentials shifted to the less negative values, and reduction was less reversible as shown for 2 in Figure S10. […] Cyclic voltammetric experiments were performed as described previously.[46] The cyclic voltammograms were measured in the cathodic region in different solvents (DMSO, methanol, DMSO/H2O). The analytical purity grade LiClO4 (Sigma-Aldrich) and distilled and deionized water were used for preparation of 1 mM aqueous solutions of the investigated complexes 1-6. EPR spectra were recorded with the EMX plus. In situ UV-vis-NIR spectroelectrochemical measurements were performed on a spectrometer (Avantes, Model AvaSpec-2048x14-USB2 in the spectroelectrochemical cell kit ([…]3)) with the Pt-microstructured honeycomb working electrode, purchased from Pine Research Instrumentation. The cell was positioned in the CUV-UV Cuvette Holder (Ocean Optics) connected to the diode-array UV-vis-NIR spectrometer by optical fibers. UV-vis-NIR spectra were processed using the AvaSoft 7.7 software package. Halogen and deuterium lamps were used as light sources (Avantes, Model AvaLight-DH-S-BAL). The in situ EPR spectroelectrochemical experiments were carried out under an argon atmosphere in the EPR flat cell equipped with a large platinum mesh working electrode. The freshly prepared solutions were carefully purged with argon and the electrolytic cell was polarized in the galvanostatic mode directly in the cylindrical EPR cavity TM-110 (ER 4103 TM), and the EPR spectra were measured in situ.

Structures are written as SMILES. Bounds are passed on as bounds.

With `CN(C)C(=NN=Cc1ccc(CN2CCOCC2)cn1)[S][Cu][Cl]` [complex 2, [Cu(L^2)Cl]], the “log D7.4” value in data set [1] is “+0.30 ± 0.01”. Moreover, the “cellular accumulation A2780” value in the data set on A2780 cells is given as 3.9 ± 0.6 nmol Cu/mg protein. Also, in “Solubility in water”, the solubility in water was not above 2 mM. Further, in data set [2] (vs Fc+/Fc), the “E1/2 Red1 (DMSO) vs Fc+/Fc” value is on record as “–0.80 V” and the “E1/2 Red1 (MeOH) vs Fc+/Fc” value is recorded as “–0.54 V”. For the same molecule, in data set [2] (vs NHE (in brackets)), the “E1/2 Red1 (DMSO) vs NHE” value was “–0.16 V” and the “E1/2 Red1 (MeOH) vs NHE” value was “+0.10 V”. For the same molecule, the “E1/2 Red1 (H2O) vs Fc+/Fc” value in data set [2] (H2O, vs Fc+/Fc) is reported as “–0.52 V”. In addition, the “E1/2 Red1 (H2O) vs NHE” value in data set [2] (H2O, vs NHE (in brackets)) is listed as “+0.12 V”.
For the molecule `[Cl][Cu][S]C(=NN=Cc1ccc(CN2CCOCC2)cn1)Nc1ccccc1` [complex 5, [Cu(L^5)Cl]], the “log D7.4” value in data set [1] is on record as “+1.49 ± 0.06”. In addition, the “cellular accumulation A2780” value with A2780 cells is reported as 4.1 ± 0.9 nmol Cu/mg protein. This molecule had a solubility in water in the data set “Solubility in water” not above 2 mM. Moreover, in data set [2] (vs Fc+/Fc), the “E1/2 Red1 (DMSO) vs Fc+/Fc” value is recorded as “–0.77 V” and the “E1/2 Red1 (MeOH) vs Fc+/Fc” value is listed as “–0.48 V”. Moreover, in data set [2] (vs NHE (in brackets)), the “E1/2 Red1 (DMSO) vs NHE” value is “–0.13 V” and the “E1/2 Red1 (MeOH) vs NHE” value was “+0.16 V”.

Source of the values: paper PMC6348444, “New Water-Soluble Copper(II) Complexes with Morpholine–Thiosemicarbazone Hybrids: Insights into the Anticancer and Antibacterial Mode of Action” (Journal of Medicinal Chemistry, 2018).
